Source: ChEMBL document CHEMBL1201861, “Genomics of Drug Sensitity in Cancer screening data, Wellcome Trust Sanger Institute”

Experiments:
Assay in all cases: cells
COLO-800 = assay type: functional, cell-based, Homo sapiens; conditions: Homo sapiens, COLO-800;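 also: growth inhibition of COLO-800 cells, read out with a cell viability assay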
Description: SANGER: Inhibition of human COLO-800 cell growth in a cell viability assay.

COLO-829 = assay type: functional, cell-based, Homo sapiens; conditions: Homo sapiens, COLO-829
Description: SANGER: Inhibition of human COLO-829 cell growth in a cell viability assay.

CTV-1 = assay type: functional, cell-based, Homo sapiens; conditions: Homo sapiens, CTV-1;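 also: growth inhibition of the cell line, read out with a cell viability assay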
Description: SANGER: Inhibition of human CTV-1 cell growth in a cell viability assay.

D-247MG = assay type: functional, cell-based; conditions: Homo sapiens
Description: SANGER: Inhibition of human D-247MG cell growth in a cell viability assay.

D283 Med = assay type: functional, cell-based, Homo sapiens; conditions: Homo sapiens, D283 Med
Description: SANGER: Inhibition of human D-283MED cell growth in a cell viability assay.

DEL = assay type: functional, cell-based, Homo sapiens; conditions: Homo sapiens, DEL;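 also: growth inhibition of the human DEL cell line, read out with a cell viability assay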
Description: SANGER: Inhibition of human DEL cell growth in a cell viability assay.

DMS-114 = assay type: functional, cell-based, Homo sapiens; conditions: Homo sapiens, DMS-114
DOHH-2 = assay type: functional, cell-based, Homo sapiens; conditions: Homo sapiens, DOHH-2;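 also: growth inhibition of human DOHH-2 cells, read out with a cell viability assay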
Description: SANGER: Inhibition of human DOHH-2 cell growth in a cell viability assay.

DU-4475 = assay type: functional, cell-based, Homo sapiens; conditions: Homo sapiens, DU-4475
Description: SANGER: Inhibition of human DU-4475 cell growth in a cell viability assay.

EW-13 = assay type: functional, cell-based, Homo sapiens; conditions: Homo sapiens, EW-13; read-out: IC50;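 also: growth inhibition of EW-13 cells, read out with a cell viability assay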
Description: SANGER: Inhibition of human EW-13 cell growth in a cell viability assay.

GAK = assay type: functional, cell-based, Homo sapiens; conditions: Homo sapiens, GAK;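 also: cell growth inhibition read out by a cell viability assay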
Description: SANGER: Inhibition of human GAK cell growth in a cell viability assay.

HCE-4 = assay type: functional, cell-based; conditions: Homo sapiens;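 also: cell viability assay measuring inhibition of growth in the human HCE-4 cell line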
Description: SANGER: Inhibition of human HCE-4 cell growth in a cell viability assay.

HEL = assay type: functional, cell-based, Homo sapiens; conditions: Homo sapiens, HEL;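 also: growth inhibition of HEL cells, read out with a cell viability assay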
Description: SANGER: Inhibition of human HEL cell growth in a cell viability assay.

IST-SL1 = assay type: functional, cell-based, Homo sapiens; conditions: Homo sapiens, IST-SL1;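 also: growth inhibition of human IST-SL1 cells, read out with a cell viability assay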
Description: SANGER: Inhibition of human IST-SL1 cell growth in a cell viability assay.

J-RT3-T3-5 = assay type: functional, cell-based, Homo sapiens; conditions: Homo sapiens, J-RT3-T3-5;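 also: cell viability assay measuring growth inhibition of human J-RT3-T3-5 cells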
Description: SANGER: Inhibition of human J-RT3-T3-5 cell growth in a cell viability assay.

KM-H2 = assay type: functional, cell-based, Homo sapiens; conditions: Homo sapiens, KM-H2;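 also: growth inhibition of KM-H2 cells, read out by a cell viability assay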
Description: SANGER: Inhibition of human KM-H2 cell growth in a cell viability assay.

L-428 = assay type: functional, cell-based, Homo sapiens; conditions: Homo sapiens, L-428
Description: SANGER: Inhibition of human L-428 cell growth in a cell viability assay.

LS-411N = assay type: functional, cell-based, Homo sapiens; conditions: Homo sapiens, LS-411N
LXF-289 cell line = assay type: functional, cell-based; conditions: Homo sapiens
Description: SANGER: Inhibition of human LXF-289 cell growth in a cell viability assay.

NB10 = assay type: functional, cell-based, Homo sapiens; conditions: Homo sapiens, NB10;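 also: growth inhibition of NB10 cells, read out by a cell viability assay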
Description: SANGER: Inhibition of human NB10 cell growth in a cell viability assay.

NCI-H1092 = assay type: functional, cell-based, Homo sapiens; conditions: Homo sapiens, NCI-H1092;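 also: cell growth inhibition measured with a cell viability assay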
Description: SANGER: Inhibition of human NCI-H1092 cell growth in a cell viability assay.

NCI-H1770 = assay type: functional, cell-based, Homo sapiens; conditions: Homo sapiens, NCI-H1770;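 also: growth inhibition of NCI-H1770 cells determined with a viability readout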
Description: SANGER: Inhibition of human NCI-H1770 cell growth in a cell viability assay.

NCI-H526 = assay type: functional, cell-based, Homo sapiens; conditions: Homo sapiens, NCI-H526;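 also: growth inhibition of the human NCI-H526 cell line, measured by a cell viability assay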
Description: SANGER: Inhibition of human NCI-H526 cell growth in a cell viability assay.

NCI-H69 = assay type: functional, cell-based, Homo sapiens; conditions: Homo sapiens, NCI-H69;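 also: growth inhibition of the cell line, read out with a cell viability assay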
Description: SANGER: Inhibition of human NCI-H69 cell growth in a cell viability assay.

NCI-N87 = assay type: functional, cell-based; conditions: Homo sapiens;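 also: growth inhibition of human NCI-N87 cells, read out with a cell viability assay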
Description: SANGER: Inhibition of human NCI-N87 cell growth in a cell viability assay.

SNU1 = assay type: functional, cell-based, Homo sapiens; conditions: Homo sapiens, SNU1;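 also: growth inhibition of human NCI-SNU-1 cells, measured with a cell viability assay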
Description: SANGER: Inhibition of human NCI-SNU-1 cell growth in a cell viability assay.

SNU-5 = assay type: functional, cell-based, Homo sapiens; conditions: Homo sapiens, SNU-5;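 also: cell viability readout used to measure growth inhibition in human NCI-SNU-5 cells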
Description: SANGER: Inhibition of human NCI-SNU-5 cell growth in a cell viability assay.

NEC8 = assay type: functional, cell-based, Homo sapiens; conditions: Homo sapiens, NEC8;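 also: growth inhibition of human NEC8 cells, read out by a cell viability assay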
Description: SANGER: Inhibition of human NEC8 cell growth in a cell viability assay.

NKM-1 = assay type: functional, cell-based, Homo sapiens; conditions: Homo sapiens, NKM-1;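 also: growth inhibition of NKM-1 cells, read out with a cell viability assay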
Description: SANGER: Inhibition of human NKM-1 cell growth in a cell viability assay.

NOMO-1 = assay type: functional, cell-based, Homo sapiens; conditions: Homo sapiens, NOMO-1;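 also: growth inhibition of human NOMO-1 cells measured by a cell viability assay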
Description: SANGER: Inhibition of human NOMO-1 cell growth in a cell viability assay.

OVCAR-4 = assay type: functional, cell-based, Homo sapiens; conditions: Homo sapiens, OVCAR-4;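 also: growth inhibition of human OVCAR-4 cells, measured with a cell viability assay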
Description: SANGER: Inhibition of human OVCAR-4 cell growth in a cell viability assay.

PSN1 = assay type: functional, cell-based, Homo sapiens; conditions: Homo sapiens, PSN1;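 also: suppression of growth of human PSN1 cells, read out by a cell viability assay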
Description: SANGER: Inhibition of human PSN1 cell growth in a cell viability assay.

RKO = assay type: functional, cell-based, Homo sapiens; conditions: Homo sapiens, RKO;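 also: growth inhibition of human RKO cells, read out with a cell viability assay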
Description: SANGER: Inhibition of human RKO cell growth in a cell viability assay.

RS4-11 = assay type: functional, cell-based, Homo sapiens; conditions: Homo sapiens, RS4-11;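 also: growth inhibition of RS4-11 cells, read out by a cell viability assay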
Description: SANGER: Inhibition of human RS4-11 cell growth in a cell viability assay.

SK-NEP-1 = assay type: functional, cell-based, Homo sapiens; conditions: Homo sapiens, SK-NEP-1;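 also: growth inhibition of human SK-NEP-1 cells, read out by a cell viability assay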
Description: SANGER: Inhibition of human SK-NEP-1 cell growth in a cell viability assay.

SNU-C2B = assay type: functional, cell-based; conditions: Homo sapiens;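 also: cell viability readout used to measure compound-driven suppression of SNU-C2B cell proliferation, IC50 marking half-maximal growth inhibition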
Description: SANGER: Inhibition of human SNU-C2B cell growth in a cell viability assay.

A498 = assay type: functional, cell-based, Homo sapiens; conditions: Homo sapiens, A498;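 also: growth inhibition of human A498 cells, read out with a cell viability assay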
Description: SANGER: Inhibition of human A498 cell growth in a cell viability assay.

A704 = assay type: functional, cell-based; conditions: Homo sapiens;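 also: growth inhibition of human A704 cells, read out with a cell viability assay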
Description: SANGER: Inhibition of human A704 cell growth in a cell viability assay.

ATN-1 = assay type: functional, cell-based, Homo sapiens; conditions: Homo sapiens, ATN-1;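 also: growth inhibition of human ATN-1 cells, read out with a cell viability assay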
Description: SANGER: Inhibition of human ATN-1 cell growth in a cell viability assay.

BT-474 = assay type: functional, cell-based, Homo sapiens; conditions: Homo sapiens, BT-474
Description: SANGER: Inhibition of human BT-474 cell growth in a cell viability assay.

Becker = assay type: functional, cell-based, Homo sapiens; conditions: Homo sapiens, Becker;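 also: growth inhibition of Becker cells, read out with a cell viability assay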
Description: SANGER: Inhibition of human Becker cell growth in a cell viability assay.

C8166 = assay type: functional, cell-based, Homo sapiens; conditions: Homo sapiens, C8166;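 also: growth inhibition of human C8166 cells measured by a cell viability assay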
Description: SANGER: Inhibition of human C8166 cell growth in a cell viability assay.

TE-8 = assay type: functional, cell-based, Homo sapiens; conditions: Homo sapiens, TE-8;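 also: growth inhibition of TE-8 cells, measured with a cell viability readout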
Description: SANGER: Inhibition of human TE-8 cell growth in a cell viability assay.

TK-10 = assay type: functional, cell-based, Homo sapiens; conditions: Homo sapiens, TK-10;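 also: growth inhibition of TK-10 cells, read out in a cell viability assay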
Description: SANGER: Inhibition of human TK10 cell growth in a cell viability assay.

U-266 = assay type: functional, cell-based, Homo sapiens; conditions: Homo sapiens, U-266
Description: SANGER: Inhibition of human U-266 cell growth in a cell viability assay.

U-87 MG = assay type: functional, cell-based, Homo sapiens, U-87MG ATCC; conditions: Homo sapiens, U-87 MG;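 also: growth inhibition of the cells measured with a viability assay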
Description: SANGER: Inhibition of human U-87-MG cell growth in a cell viability assay.

UACC-257 = assay type: functional, cell-based, Homo sapiens; conditions: Homo sapiens, UACC-257
Description: SANGER: Inhibition of human UACC-257 cell growth in a cell viability assay.

CGTH-W-1 = assay type: functional, cell-based, Homo sapiens; conditions: Homo sapiens, CGTH-W-1;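 also: growth inhibition of human CGTH-W-1 cells measured by cell viability assay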
Description: SANGER: Inhibition of human CGTH-W-1 cell growth in a cell viability assay.

COLO-320-HSR = assay type: functional, cell-based, Homo sapiens; conditions: Homo sapiens, COLO-320-HSR;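 also: growth inhibition of COLO-320-HSR cells, determined with a cell viability assay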
Description: SANGER: Inhibition of human COLO-320-HSR cell growth in a cell viability assay.

COLO-684 = assay type: functional, cell-based, Homo sapiens; conditions: Homo sapiens, COLO-684
Description: SANGER: Inhibition of human COLO-684 cell growth in a cell viability assay.

Measured: IC50

COC(=O)[C@H](CCSC)NC(=O)c1ccc(NC[C@@H](N)CS)cc1-c1ccccc1
> 1020 nM: all assays above
